Read-outs that look alike come from different tables or passages of the source.
Experiments:
Type in all cases: cell-based, human
MM96L melanoma cells = test: Cell survival assay (clonogenic survival, SRB); settings: for IC50: MM96L; for SI (Selectivity Index = IC50 (NFF)/IC50 (MM96L)): NFF vs MM96L; for Selectivity Index MM96L: Table 13, S enantiomer, IC50(NFF)/IC50(cancer cell line)
Procedure, shortened: (§1)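 Cells (5×10^3/well, RPMI 1640 with 10% FCS) treated 24 h with compound at 0.01-10 μg/mL, then washed and grown 72 h drug-free at 37 °C, 5% CO2. Survival read by SRB staining after methylated-spirit fixation, absorbance 564 nm.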

[1] = test system: CI-80-13S ovarian cancer cells; test: Cell survival assay (SRB); settings: for IC50: read-out: Cytoselectivities (nM) CI80-13S; for Selectivity Index CI80-13S: Table 13, S enantiomer, IC50(NFF)/IC50(cancer cell line)
Procedure: (§2) Cell Lines and Culture Medium. All cell lines used in this study have been described previously (Parsons et al., 1986; Todaro et al., 1980; Glenn et al., 2004). All cell lines were cultured in 10% heat-inactivated foetal calf serum (CSL, Australia) in RPMI 1640 medium supplemented with 100 U/mL penicillin, 100 μg/mL streptomycin, and 3 mM HEPES at 5% CO2, 99% humidity at 37° C. Primary human fibroblasts were obtained from neonatal foreskins and cultured in the above medium. Routine mycoplasma tests were performed using Hoechst stain^i and were always negative.
(§3) Cell Survival Assay. Cells were plated into 96-well microtitre plates at 5×10^3 cells/well, and allowed to adhere overnight. Test compounds were added to culture medium at the indicated concentrations, and plates incubated in the above conditions for 24 hours. Following this incubation period, compounds and media were removed, and replaced with fresh culture medium. Cells were then grown for a further 72 hours before assay using sulforhodamine B (SRB; Sigma, St. Louis, Mo.) as previously described. Briefly, the culture medium was removed from the 96-well microtitre plates and the plates washed twice with phosphate buffered saline (PBS), before the cells were fixed with methylated spirits for 15 minutes. The plates were then rinsed with tap water and the fixed cells stained with 50 μL/well of SRB solution (0.4% sulforhodamine B (w/v) in 1% (v/v) acetic acid) over a period of 1 hour. The SRB solution was then removed from the wells and the plates rapidly washed two times with 1% (v/v) acetic acid. Protein bound dye was then solubilised with the addition of 100 μL of 10 mM unbuffered Tris, and incubated for 15 min at 25° C. Plates were then read at 564 nm on a VERSA max tunable microplate reader (Molecular Devices, Sunnyvale, Calif.).
(§4) For comparison their results are also shown for MM96L and NFF cell lines.

[2] = test system: DU145 prostate cancer cells; test: Cell survival assay (SRB); settings: for IC50: DU145 (prostate), read-out: Cytoselectivities (nM) DU145; for Selectivity Index DU145: Table 13, S enantiomer, IC50(NFF)/IC50(cancer cell line)
Procedure: as §2, §3, §4

JAM ovarian cancer cells = test: Cell survival assay (SRB); settings: for IC50: read-out: Cytoselectivities (nM) JAM; for Selectivity Index JAM: Table 13, S enantiomer, IC50(NFF)/IC50(cancer cell line)
Procedure: as §2, §3, §4

[3] = test system: MCF-7 breast cancer cells; test: Cell survival assay (SRB); settings: for IC50: MCF-7 (breast), read-out: Cytoselectivities (nM) MCF-7; for Selectivity Index MCF-7: Table 13, S enantiomer, IC50(NFF)/IC50(cancer cell line)
Procedure: as §2, §3, §4

SkMel28 melanoma cells = test: Cell survival assay (SRB); settings: for IC50: SK-MEL-28 (melanoma), read-out: Cytoselectivities (nM) SK-MEL-28; for Selectivity Index SK-MEL-28: Table 13, S enantiomer, IC50(NFF)/IC50(cancer cell line)
Procedure: as §2, §3, §4

A549 cells = test: Cell survival assay (SRB); settings: for IC50: A549 (lung), read-out: Cytoselectivities (nM) A549; for Selectivity Index A549: Table 13, S enantiomer, IC50(NFF)/IC50(cancer cell line)
Procedure: as §2, §3

H520 cells = test: Cell survival assay (SRB); settings: for IC50: read-out: Cytoselectivities (nM) H520; for Selectivity Index H520: Table 13, S enantiomer, IC50(NFF)/IC50(cancer cell line)
Procedure: as §2, §3

HOP62 cells = test: Cell survival assay (SRB); settings: for IC50: HOP62 (lung), read-out: Cytoselectivities (nM) HOP62; for Selectivity Index HOP62: Table 13, S enantiomer, IC50(NFF)/IC50(cancer cell line)
Procedure: as §2, §3

HT29 cells = test: Cell survival assay (SRB); settings: for IC50: HT29 (colon), read-out: Cytoselectivities (nM) HT29; for Selectivity Index HT29: Table 13, S enantiomer, IC50(NFF)/IC50(cancer cell line)
Procedure: as §2, §3

PC-3 cells = test: Cell survival assay (SRB); settings: for IC50: PC-3, read-out: Cytoselectivities (nM) PC-3; for Selectivity Index PC-3: Table 13, S enantiomer, IC50(NFF)/IC50(cancer cell line)
Procedure: as §2, §3

SK-MEL-5 cells = test: Cell survival assay (SRB); settings: for IC50: SK-MEL-5, read-out: Cytoselectivities (nM) SK-MEL-5; for Selectivity Index SK-MEL-5: Table 13, S enantiomer, IC50(NFF)/IC50(cancer cell line)
Procedure: as §2, §3

T-47D cells = test: Cell survival assay (SRB); settings: for IC50: read-out: Cytoselectivities (nM) T-47D; for Selectivity Index T-47D: Table 13, S enantiomer, IC50(NFF)/IC50(cancer cell line)
Procedure: as §2, §3

[4] = test system: NFF, neonatal foreskin fibroblasts; test: Cell survival assay (clonogenic survival, SRB), normal cells; settings: Homo sapiens, Fibroblast, NFF normal fibroblasts; 24 h with compound, further 72 h growth, SRB; read-out: IC50 (uM) NFF
Procedure, shortened: as §1

Col208 cells = test: Cell survival assay (SRB); settings: for IC50: Homo sapiens, Col208 (colon), read-out: Cytoselectivities (nM) Col208; for Selectivity Index Col208: Table 13, S enantiomer, IC50(NFF)/IC50(cancer cell line)
Procedure: as §2, §3

[5] = Table 12, read-out: Cytoselectivities (nM) MM96L
[6] = Homo sapiens, MM96L melanoma, 24 h with compound, further 72 h growth, SRB, read-out: IC50 (uM) MM96L
[7] = Homo sapiens, Table 12, read-out: Cytoselectivities (nM) MM96L

CN(C)c1ccc(C(=O)N[C@H](CCCCCC(=O)NO)C(=O)Nc2cccc3cccnc23)cc1 [126 R]
IC50 (MM96L melanoma cells; [5]): 38 nM
IC50 ([1]; CI80-13S): 43 nM
IC50 [2]: 52 nM
IC50 (JAM ovarian cancer cells; JAM): 251 nM
IC50 [3]: 40 nM
IC50 (SkMel28 melanoma cells): 57 nM
IC50 (A549 cells): 191 nM
IC50 (H520 cells; H520): 188 nM
IC50 (HOP62 cells): 147 nM
IC50 (HT29 cells): 199 nM
IC50 (PC-3 cells): 387 nM
IC50 (SK-MEL-5 cells): 44 nM
IC50 (T-47D cells; T-47D): 63 nM

O=C(CCCCC[C@@H](NC(=O)c1ccc(Br)cc1)C(=O)Nc1ccc(-c2ccccc2)cc1)NO [161 R]
IC50 (MM96L melanoma cells; [5]): 18600 nM
IC50 ([1]; CI80-13S): 18600 nM
IC50 [2]: 18600 nM
IC50 (JAM ovarian cancer cells; JAM): 18600 nM
IC50 [3]: 13000 nM
IC50 (SkMel28 melanoma cells): 18600 nM
IC50 (A549 cells): 18600 nM
IC50 (H520 cells; H520): 18600 nM
IC50 (HOP62 cells): 18600 nM
IC50 (HT29 cells): 18600 nM
IC50 (PC-3 cells): 18600 nM
IC50 (SK-MEL-5 cells): 18600 nM
IC50 (T-47D cells; T-47D): 18600 nM

CC(C)COC(=O)N[C@@H](CCCCCC(=O)NO)C(=O)Nc1cccc2cccnc12 [Example 149]
IC50 [4]: 0.081 µM
IC50 (MM96L melanoma cells; [6]): 23 nM
IC50 (MM96L melanoma cells; [7]): 116 nM
SI (Selectivity Index = IC50 (NFF)/IC50 (MM96L)) (MM96L melanoma cells): 3.5
Selectivity Index MM96L (MM96L melanoma cells): 0.7
IC50 ([1]; Homo sapiens): 149 nM
Selectivity Index CI80-13S [1]: 0.5
IC50 ([2]; Homo sapiens, DU-145): 130 nM
Selectivity Index DU145 [2]: 0.6
IC50 (JAM ovarian cancer cells; Homo sapiens): 221 nM
Selectivity Index JAM (JAM ovarian cancer cells): 0.4
IC50 ([3]; Homo sapiens, MCF7): 138 nM
Selectivity Index MCF-7 [3]: 0.6
IC50 (SkMel28 melanoma cells; Homo sapiens): 170 nM
Selectivity Index SK-MEL-28 (SkMel28 melanoma cells): 0.5
IC50 (A549 cells; Homo sapiens): 291 nM
Selectivity Index A549 (A549 cells): 0.3
IC50 (Col208 cells): 395 nM
Selectivity Index Col208 (Col208 cells): 0.2
IC50 (H520 cells; Homo sapiens, NCI-H520): 129 nM
Selectivity Index H520 (H520 cells): 0.6
IC50 (HOP62 cells; Homo sapiens, HOP-62): 267 nM
Selectivity Index HOP62 (HOP62 cells): 0.3
IC50 (HT29 cells; Homo sapiens, HT-29): 360 nM
Selectivity Index HT29 (HT29 cells): 0.2
IC50 (PC-3 cells; Homo sapiens): 651 nM
Selectivity Index PC-3 (PC-3 cells): 0.1
IC50 (SK-MEL-5 cells; Homo sapiens): 100 nM
Selectivity Index SK-MEL-5 (SK-MEL-5 cells): 0.8
IC50 (T-47D cells; Homo sapiens, T47D): 198 nM
Selectivity Index T-47D (T-47D cells): 0.4

O=C(/C=C/c1ccccc1)N[C@H](CCCCCC(=O)NO)C(=O)Nc1cccc2cccnc12 [146 R]
IC50 (MM96L melanoma cells; [5]): 45 nM
IC50 ([1]; CI80-13S): 91 nM
IC50 [2]: 63 nM
IC50 (JAM ovarian cancer cells; JAM): 163 nM
IC50 [3]: 51 nM
IC50 (SkMel28 melanoma cells): 87 nM
IC50 (A549 cells): 196 nM
IC50 (H520 cells; H520): 152 nM
IC50 (HOP62 cells): 133 nM
IC50 (HT29 cells): 272 nM
IC50 (PC-3 cells): 543 nM
IC50 (SK-MEL-5 cells): 66 nM
IC50 (T-47D cells; T-47D): 99 nM

O=C(CCCCC[C@H](NC(=O)c1ccc(Br)cc1)C(=O)Nc1ccc(-c2ccccc2)cc1)NO [Example 161]
IC50 [4]: 0.185 µM
IC50 (MM96L melanoma cells; [6]): 74 nM
IC50 (MM96L melanoma cells; [7]): 121 nM
SI (Selectivity Index = IC50 (NFF)/IC50 (MM96L)) (MM96L melanoma cells): 2.5
Selectivity Index MM96L (MM96L melanoma cells): 1.5
IC50 ([1]; Homo sapiens): 158 nM
Selectivity Index CI80-13S [1]: 1.2
IC50 ([2]; Homo sapiens, DU-145): 149 nM
Selectivity Index DU145 [2]: 1.2
IC50 (JAM ovarian cancer cells; Homo sapiens): 182 nM
Selectivity Index JAM (JAM ovarian cancer cells): 1.0
IC50 ([3]; Homo sapiens, MCF7): 149 nM
Selectivity Index MCF-7 [3]: 1.2
IC50 (SkMel28 melanoma cells; Homo sapiens): 168 nM
Selectivity Index SK-MEL-28 (SkMel28 melanoma cells): 1.1
IC50 (A549 cells; Homo sapiens): 335 nM
Selectivity Index A549 (A549 cells): 0.6
IC50 (Col208 cells): 272 nM
Selectivity Index Col208 (Col208 cells): 0.6
IC50 (H520 cells; Homo sapiens, NCI-H520): 117 nM
Selectivity Index H520 (H520 cells): 1.6
IC50 (HOP62 cells; Homo sapiens, HOP-62): 261 nM
Selectivity Index HOP62 (HOP62 cells): 0.7
IC50 (HT29 cells; Homo sapiens, HT-29): 307 nM
Selectivity Index HT29 (HT29 cells): 0.6
IC50 (PC-3 cells; Homo sapiens): 531 nM
Selectivity Index PC-3 (PC-3 cells): 0.3
IC50 (SK-MEL-5 cells; Homo sapiens): 102 nM
Selectivity Index SK-MEL-5 (SK-MEL-5 cells): 1.8
IC50 (T-47D cells; Homo sapiens, T47D): 197 nM
Selectivity Index T-47D (T-47D cells): 0.9

O=C(CCCCC[C@@H](NC(=O)c1cc2ccccc2[nH]1)C(=O)Nc1cccc2cccnc12)NO [132 R]
IC50 (MM96L melanoma cells; [5]): 18 nM
IC50 ([1]; CI80-13S): 27 nM
IC50 [2]: 33 nM
IC50 (JAM ovarian cancer cells; JAM): 211 nM
IC50 [3]: 42 nM
IC50 (SkMel28 melanoma cells): 43 nM
IC50 (A549 cells): 121 nM
IC50 (H520 cells; H520): 180 nM
IC50 (HOP62 cells): 63 nM
IC50 (HT29 cells): 238 nM
IC50 (PC-3 cells): 148 nM
IC50 (SK-MEL-5 cells): 23 nM
IC50 (T-47D cells; T-47D): 42 nM

O=C(CCCCC[C@@H](NC(=O)OCc1ccccc1)C(=O)Nc1cccc2cccnc12)NO [148 R]
IC50 (MM96L melanoma cells; [5]): 22 nM
IC50 ([1]; CI80-13S): 29 nM
IC50 [2]: 39 nM
IC50 (JAM ovarian cancer cells; JAM): 65 nM
IC50 [3]: 29 nM
IC50 (SkMel28 melanoma cells): 43 nM
IC50 (A549 cells): 104 nM
IC50 (H520 cells; H520): 46 nM
IC50 (HOP62 cells): 65 nM
IC50 (HT29 cells): 139 nM
IC50 (PC-3 cells): 269 nM
IC50 (SK-MEL-5 cells): 20 nM
IC50 (T-47D cells; T-47D): 51 nM

From patent publication US20080004290A1, “Anti-Cancer Agents” (THE UNIVERSITY OF QUEENSLAND, priority 2003, published 2008)
